The values that follow come from paper PMC12400318 (Biochemical Journal, 2025).

One may read the Ki as a measure of affinity in units of concentration, obtained from inhibition or displacement. The term Km denotes the concentration of substrate that gives half-maximal velocity.

Data set [1] addresses T1, T. melanesiensis CtfAB (T. mel CtfAB; WT-CtfAB) (Thermosipho melanesiensis, UniProt A6LM39+A6LM40, A6LM39:E46S).
T1 construct: gene Tmel_1136
Conditions: acetate from crystallisation buffer; second acetate in place of the catalytic glutamate carboxylate.

Data set [2] concerns the target T2, T. melanesiensis CtfAB (T. mel CtfAB; WT-CtfAB) (Thermosipho melanesiensis, UniProt A6LM39+A6LM40).
T2 sequence (A6LM40 1-217): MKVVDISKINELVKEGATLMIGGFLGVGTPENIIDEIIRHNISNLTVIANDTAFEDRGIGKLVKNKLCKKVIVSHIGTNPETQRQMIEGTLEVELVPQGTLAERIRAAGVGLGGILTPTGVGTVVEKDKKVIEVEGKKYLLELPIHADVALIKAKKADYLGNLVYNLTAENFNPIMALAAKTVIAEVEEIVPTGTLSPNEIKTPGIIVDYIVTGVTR
T2 sequence (A6LM39 1-214): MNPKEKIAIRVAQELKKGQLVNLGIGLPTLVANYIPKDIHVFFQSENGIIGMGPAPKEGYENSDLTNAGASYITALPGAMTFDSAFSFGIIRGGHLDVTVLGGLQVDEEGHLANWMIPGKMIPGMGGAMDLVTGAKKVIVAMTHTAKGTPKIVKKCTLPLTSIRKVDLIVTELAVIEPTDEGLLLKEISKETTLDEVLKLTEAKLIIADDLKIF
Also on record: gene Tmel_1136. Conditions: rate-equation constant of substrate B (acetate) in the forward fit, not a separate inhibition assay; 100 mM Tris-HCl, 40 mM MgCl2, 5% glycerol, pH 7.5, 65 °C.

In data set [3] the target is T3, T. melanesiensis CtfAB (T. mel CtfAB; WT-CtfAB) (Thermosipho melanesiensis, UniProt A6LM39+A6LM40, A6LM39:E46D). Also on record: gene Tmel_1136. Conditions: acetate from crystallisation buffer; pocket next to residue 46.
The target of data set [4] is T4, T. melanesiensis CtfAB (T. mel CtfAB; WT-CtfAB) (Thermosipho melanesiensis, UniProt A6LM39+A6LM40, A6LM39:F42T/A6LM39:S45C).
T4 construct: gene Tmel_1136; co-expressed in E. coli Rosetta 2(DE3)pLysS; N-terminal 6xHis on CtfA, untagged CtfB; subunits Mr 23-25 kDa; heterotetramer (two CtfA-CtfB heterodimers) in crystals
Kind of data set: X-ray crystal structure, […] Å. It is filed as binding.

Data set [5] addresses T3, T. melanesiensis CtfAB (T. mel CtfAB; WT-CtfAB). The data set is described as follows: hydrolase activity assay. Type of data set: biochemical. More on the design: gene Tmel_1136; co-expressed in E. coli Rosetta 2(DE3)pLysS; N-terminal 6xHis on CtfA, untagged CtfB; subunits Mr 23-25 kDa; heterotetramer (two CtfA-CtfB heterodimers) in crystals. Conditions: CoA hydrolase instead of transferase; acetate not required.

The target of data set [6] is T2, T. melanesiensis CtfAB (T. mel CtfAB; WT-CtfAB). Kind of data set: acetoacetyl-CoA Mg-enolate consumption at […] nm; global ping-pong bi-bi fit with inhibition. It is filed as biochemical. More on the design: gene Tmel_1136; co-expressed in E. coli Rosetta 2(DE3)pLysS; N-terminal 6xHis on CtfA, untagged CtfB; subunits Mr 23-25 kDa; heterotetramer (two CtfA-CtfB heterodimers) in crystals. Conditions: read-out: Ki,Q.

Substrate in data set [7]: CC(=O)O
Kind of data set: purified protein. Conditions: forward reaction, co-substrate acetoacetyl-CoA (0.025-0.4 mM), 100 mM Tris-HCl, 40 mM MgCl2, 5% glycerol, pH 7.5, 65 °C.

Substrate in data set [8]: CC(=O)CC(=O)O
The data set is described as follows: purified protein. It is filed as biochemical, Thermosipho melanesiensis. Conditions: reverse reaction, co-substrate acetyl-CoA (0.033-0.4 mM), 100 mM Tris-HCl, 40 mM MgCl2, 5% glycerol, pH 7.5, 65 °C.

Substrate in data set [9]: CC(=O)CC(=O)SCCNC(=O)CCNC(=O)[C@H](O)C(C)(C)COP(=O)(O)OP(=O)(O)OC[C@H]1O[C@@H](n2cnc3c(N)ncnc32)[C@H](O)[C@@H]1OP(=O)(O)O
Kind of data set: purified protein. Conditions: forward reaction, co-substrate acetate (18.75-375 mM), 100 mM Tris-HCl, 40 mM MgCl2, 5% glycerol, pH 7.5, 65 °C, abstract prints 135 μM. It is filed as biochemical, Thermosipho melanesiensis.

Substrate in data set [10]: CC(=O)SCCNC(=O)CCNC(=O)[C@H](O)C(C)(C)COP(=O)(O)OP(=O)(O)OC[C@H]1O[C@@H](n2cnc3c(N)ncnc32)[C@H](O)[C@@H]1OP(=O)(O)O
Kind of data set: purified protein. It is filed as biochemical, Thermosipho melanesiensis. Conditions: reverse reaction, co-substrate acetoacetate (3.75-18.75 mM), 100 mM Tris-HCl, 40 mM MgCl2, 5% glycerol, pH 7.5, 65 °C.

Data set [11] concerns the molecule itself. The data set is described as follows: crystal structure; hanging drop, purified co-expressed CtfAB 5-6 mg/mL in 10 mM MOPS, 5% glycerol, 50 mM Na2SO4, 50 mM NaCl, 1 mM DTT, pH 7.5; reservoir 100 mM Na acetate pH 4.9-5.5, 6-10% PEG 3350; F42T/S45C co-crystal with 5-10 mM acetyl-CoA; space group P4(1)2(1)2.

T4 sequence (A6LM39 entry or part of it F42T/S45C, one chain of several): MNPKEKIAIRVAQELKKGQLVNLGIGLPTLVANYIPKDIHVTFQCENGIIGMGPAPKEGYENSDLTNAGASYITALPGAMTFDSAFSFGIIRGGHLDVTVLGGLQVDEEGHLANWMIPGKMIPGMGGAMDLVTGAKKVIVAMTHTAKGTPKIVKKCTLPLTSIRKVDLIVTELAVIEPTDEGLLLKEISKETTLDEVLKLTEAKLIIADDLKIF
T3 sequence (A6LM39 entry or part of it E46D, one chain of several): as the sequence (A6LM39 entry or part of it F42T/S45C, one chain of several) above, with T42F, C45S, E46D counted along it
T1 sequence (A6LM39 1-214 E46S, one chain of several): as the sequence (A6LM39 entry or part of it F42T/S45C, one chain of several) above, with T42F, C45S, E46S counted along it

Take `CC(=O)O` [acetate]: the “X-ray crystal structure, 2.6 Å” value in data set [1] is “a second acetate molecule binds in the space normally occupied by the catalytic glutamate”. In data set [2], the “Ki,B” value worked out at 24700 ± 16600 µM. For the same molecule, the “X-ray crystal structure, 2.2 Å” value in data set [3] was “Acetate molecules were identified in every CtfAB structure in the substrate-binding pocket”. For the same molecule, in data set [4] (acetate from crystallisation buffer (100 mM Na acetate), two molecules near E46, acetyl-CoA also bound), the “X-ray crystal structure, 1.9 Å” value is “difference density for two acetate molecules in the CtfAB F42TS45C-CoA structure”.

For the molecule `CC(=O)CC(=O)SCCNC(=O)CCNC(=O)[C@H](O)C(C)(C)COP(=O)(O)OP(=O)(O)OC[C@H]1O[C@@H](n2cnc3c(N)ncnc32)[C@H](O)[C@@H]1OP(=O)(O)O` [acetoacetyl-CoA], the hydrolase activity assay result in data set [5] is listed as “converted the transferase into a hydrolase, with activity confirmed on acetoacetyl-CoA”.

With `CC(=O)SCCNC(=O)CCNC(=O)[C@H](O)C(C)(C)COP(=O)(O)OP(=O)(O)OC[C@H]1O[C@@H](n2cnc3c(N)ncnc32)[C@H](O)[C@@H]1OP(=O)(O)O` [acetyl-CoA], the Ki in data set [6] amounted to 1270 ± 276 µM. The “X-ray crystal structure, 1.9 Å” value in data set [4] (co-crystal with 5-10 mM acetyl-CoA, site in CtfB, pantetheine part partly disordered) is “A co-crystal of the mutant CtfB F42T/S45C and acetyl-CoA was grown”.

B1: T. melanesiensis CtfAB (T. mel CtfAB; WT-CtfAB) (Thermosipho melanesiensis BI429) (protein)
chain 1: MKVVDISKINELVKEGATLMIGGFLGVGTPENIIDEIIRHNISNLTVIANDTAFEDRGIGKLVKNKLCKKVIVSHIGTNPETQRQMIEGTLEVELVPQGTLAERIRAAGVGLGGILTPTGVGTVVEKDKKVIEVEGKKYLLELPIHADVALIKAKKADYLGNLVYNLTAENFNPIMALAAKTVIAEVEEIVPTGTLSPNEIKTPGIIVDYIVTGVTR
chain 2: MNPKEKIAIRVAQELKKGQLVNLGIGLPTLVANYIPKDIHVFFQSENGIIGMGPAPKEGYENSDLTNAGASYITALPGAMTFDSAFSFGIIRGGHLDVTVLGGLQVDEEGHLANWMIPGKMIPGMGGAMDLVTGAKKVIVAMTHTAKGTPKIVKKCTLPLTSIRKVDLIVTELAVIEPTDEGLLLKEISKETTLDEVLKLTEAKLIIADDLKIF
notes: co-expressed in E. coli Rosetta 2(DE3)pLysS; N-terminal 6xHis on CtfA, untagged CtfB; subunits Mr 23-25 kDa; heterotetramer (two CtfA-CtfB heterodimers) in crystals
Take B1: the Michaelis constant (Km) is 84700 ± 15600 µM in “purified protein [7]”, 1655 ± 331 µM in “purified protein [8]”, 138 ± 28.8 µM in the data set “purified protein [9]” and 322 ± 41 µM in “purified protein [10]”.

B2: Thermosipho melanesiensis CtfAB heterodimer (His6-CtfA with CtfB), wild type (complex)
chain 1: MKVVDISKINELVKEGATLMIGGFLGVGTPENIIDEIIRHNISNLTVIANDTAFEDRGIGKLVKNKLCKKVIVSHIGTNPETQRQMIEGTLEVELVPQGTLAERIRAAGVGLGGILTPTGVGTVVEKDKKVIEVEGKKYLLELPIHADVALIKAKKADYLGNLVYNLTAENFNPIMALAAKTVIAEVEEIVPTGTLSPNEIKTPGIIVDYIVTGVTR
chain 2: MNPKEKIAIRVAQELKKGQLVNLGIGLPTLVANYIPKDIHVFFQSENGIIGMGPAPKEGYENSDLTNAGASYITALPGAMTFDSAFSFGIIRGGHLDVTVLGGLQVDEEGHLANWMIPGKMIPGMGGAMDLVTGAKKVIVAMTHTAKGTPKIVKKCTLPLTSIRKVDLIVTELAVIEPTDEGLLLKEISKETTLDEVLKLTEAKLIIADDLKIF
notes: CoA transferase subunit A (CtfA) of Thermosipho melanesiensis, Tmel_1136, WP_012057350; as the chain of m1; 3-oxoacid CoA-transferase subunit B (CtfB) of Thermosipho melanesiensis, Tmel_1135, WP_012057349; as the chain of m2; Used for the self-association of the CtfAB heterodimer into a heterotetramer and higher oligomers; also called T. mel CtfAB; WT-CtfAB; not shown: His6, N-terminal, kept
For B2, the “stoichiometry N” value in [11] was 2 heterodimers in the heterotetramer.
